Test system: LpxC enzyme
Assay: LpxC enzyme assay (RapidFire high-throughput mass spectrometry)
Assay type: biochemical
Summary of the method: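 0.2 nM enzyme with 1.0 μM UDP-3-O-(R-3-hydroxymyristoyl)-N-acetylglucosamine in 25 mM HEPES pH 7.3, 150 mM NaCl, 2.0 mM DTT, 0.01% BSA, 2% DMSO; 60 min at room temperature, quenched with HCl. Substrate and product quantified by RapidFire mass spectrometry; percent conversion gives percent inhibition versus DMSO control.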

[1] = concentration 0.10 (unit not given)
[2] = concentration 0.20 (unit not given)
[3] = concentration 0.39 (unit not given)
[4] = concentration 0.78 (unit not given)
[5] = concentration 1.56 (unit not given)
[6] = concentration 3.13 (unit not given)
[7] = concentration 6.25 (unit not given)
[8] = concentration 12.50 (unit not given)
[9] = concentration 25 (unit not given)
[10] = concentration 50 (unit not given)

Structure (SMILES)	LpxC enzyme assay rating (% inhibition at indicated concentrations) [1]	LpxC enzyme assay rating (% inhibition at indicated concentrations) [2]	LpxC enzyme assay rating (% inhibition at indicated concentrations) [3]	LpxC enzyme assay rating (% inhibition at indicated concentrations) [4]	LpxC enzyme assay rating (% inhibition at indicated concentrations) [5]	LpxC enzyme assay rating (% inhibition at indicated concentrations) [6]	LpxC enzyme assay rating (% inhibition at indicated concentrations) [7]	LpxC enzyme assay rating (% inhibition at indicated concentrations) [8]	LpxC enzyme assay rating (% inhibition at indicated concentrations) [9]	LpxC enzyme assay rating (% inhibition at indicated concentrations) [10]
CN(C)C(=O)[C@H](O)[C@@H](O)C(=O)Nc1ccc(N2CCOCC2)cc1 [Compound 54]	C (less than 10% inhibition)	C (less than 10% inhibition)	C (less than 10% inhibition)	C (less than 10% inhibition)	C (less than 10% inhibition)	B (10-30% inhibition)	C (less than 10% inhibition)	C (less than 10% inhibition)	C (less than 10% inhibition)	C (less than 10% inhibition)
CN1CCN(c2ccc(NC(=O)[C@H](O)[C@@H](O)C(=O)N(C)C)cc2)CC1 [Compound 55]	C (less than 10% inhibition)	B (10-30% inhibition)	C (less than 10% inhibition)	B (10-30% inhibition)	B (10-30% inhibition)	B (10-30% inhibition)	C (less than 10% inhibition)	C (less than 10% inhibition)	B (10-30% inhibition)	B (10-30% inhibition)
CN(C)CCOc1ccc(NC(=O)[C@H](O)[C@@H](O)C(=O)N(C)C)cc1 [Compound 56]	C (less than 10% inhibition)	B (10-30% inhibition)	C (less than 10% inhibition)	C (less than 10% inhibition)	C (less than 10% inhibition)	C (less than 10% inhibition)	B (10-30% inhibition)	C (less than 10% inhibition)	C (less than 10% inhibition)	C (less than 10% inhibition)
CN(C)CCCOc1ccc(NC(=O)[C@H](O)[C@@H](O)C(=O)N(C)C)cc1 [Compound 57]	B (10-30% inhibition)	C (less than 10% inhibition)	B (10-30% inhibition)	C (less than 10% inhibition)	C (less than 10% inhibition)	C (less than 10% inhibition)	C (less than 10% inhibition)	C (less than 10% inhibition)	B (10-30% inhibition)	C (less than 10% inhibition)
CN(C)C(=O)[C@H](O)[C@@H](O)C(=O)Nc1ccc(-n2cccn2)cc1 [Compound 58]	C (less than 10% inhibition)	B (10-30% inhibition)	C (less than 10% inhibition)	B (10-30% inhibition)	C (less than 10% inhibition)	B (10-30% inhibition)	B (10-30% inhibition)	B (10-30% inhibition)	C (less than 10% inhibition)	B (10-30% inhibition)
CN(C)C(=O)[C@H](O)[C@@H](O)C(=O)Nc1ccc(-c2cc[nH]n2)cc1 [Compound 59]	B (10-30% inhibition)	C (less than 10% inhibition)	B (10-30% inhibition)	C (less than 10% inhibition)	C (less than 10% inhibition)	C (less than 10% inhibition)	C (less than 10% inhibition)	C (less than 10% inhibition)	B (10-30% inhibition)	C (less than 10% inhibition)
O=C(NCCCCl)[C@H](O)[C@@H](O)C(=O)Nc1ccc(C#Cc2ccccc2)cc1 [Compound 60]	C (less than 10% inhibition)	C (less than 10% inhibition)	B (10-30% inhibition)	B (10-30% inhibition)	C (less than 10% inhibition)	B (10-30% inhibition)	B (10-30% inhibition)	B (10-30% inhibition)	C (less than 10% inhibition)	C (less than 10% inhibition)
CCCc1ccc(NC(=O)[C@H](O)[C@@H](O)C(=O)NCCCCl)cc1 [Compound 61]	C (less than 10% inhibition)	C (less than 10% inhibition)	C (less than 10% inhibition)	C (less than 10% inhibition)	C (less than 10% inhibition)	C (less than 10% inhibition)	C (less than 10% inhibition)	C (less than 10% inhibition)	B (10-30% inhibition)	B (10-30% inhibition)
O=C(NCCCCl)[C@H](O)[C@@H](O)C(=O)Nc1ccc(-n2cccn2)cc1 [Compound 62]	C (less than 10% inhibition)	C (less than 10% inhibition)	C (less than 10% inhibition)	C (less than 10% inhibition)	B (10-30% inhibition)	C (less than 10% inhibition)	B (10-30% inhibition)	B (10-30% inhibition)	B (10-30% inhibition)	C (less than 10% inhibition)
O=C(Nc1ccc(C#Cc2ccccc2)cc1)[C@H](O)[C@@H](O)C(=O)N1CCCC1 [Compound 63]	B (10-30% inhibition)	B (10-30% inhibition)	B (10-30% inhibition)	C (less than 10% inhibition)	B (10-30% inhibition)	B (10-30% inhibition)	B (10-30% inhibition)	A (greater than 30% inhibition)	A (greater than 30% inhibition)	A (greater than 30% inhibition)
O=C(Nc1ccc(-c2ccccc2)cc1)[C@H](O)[C@@H](O)C(=O)N1CCCC1 [Compound 64]	B (10-30% inhibition)	B (10-30% inhibition)	C (less than 10% inhibition)	B (10-30% inhibition)	C (less than 10% inhibition)	B (10-30% inhibition)	B (10-30% inhibition)	B (10-30% inhibition)	B (10-30% inhibition)	B (10-30% inhibition)
O=C(Nc1ccc(-c2ccc(C(F)(F)F)cc2)cc1)[C@H](O)[C@@H](O)C(=O)N1CCCC1 [Compound 65]	B (10-30% inhibition)	B (10-30% inhibition)	B (10-30% inhibition)	C (less than 10% inhibition)	B (10-30% inhibition)	B (10-30% inhibition)	B (10-30% inhibition)	B (10-30% inhibition)	B (10-30% inhibition)	B (10-30% inhibition)

From patent US7553864B2, “Compounds for the treatment of inflammatory disorders and microbial diseases” (Schering Corporation, priority 2005, dated 2009)
